Literature values in patent US20240199641A1, “QUINAZOLINE-4(3H)-ONE DERIVATIVES AS NEGATIVE ALLOSTERIC MODULATORS OF METABOTROPIC GLUTAMATE RECEPTOR 2” (Vanderbilt University, priority 2021, published 2024).
Like-named read-outs stand apart in the source and are kept apart here.

Columns and labels:
[1] = tested on: central mGlu2 and mGlu3 receptors; details: in vivo
[2] = C57Bl6/J mice
[3] = normal animals
[4] = normal animals; remark: listed apart in the source
[5] = mice
[6] = for activity in tail suspension test: Helpless (H) mice
[7] = CFS model
[8] = treatment for 7 days
[9] = olfactory bulbectomized rats, repeated administration for 14 days
[10] = social isolation reared mice

| Structure (SMILES) | hypolocomotor effect of mGlu2/3 agonist LY379268 [1] | immobility time in FST [2] | antidepressant-like effects in rat FST [3] | antidepressant-like effects in mouse TST [4] | marble-burying behavior [5] | activity in tail suspension test [6] | freezing behavior [7] | also measured |
| --- | --- | --- | --- | --- | --- | --- | --- | --- |
| CCCCCCCOC(=O)[C@@]1(F)[C@@H]2C[C@@H](OCc3ccc(Cl)c(Cl)c3)[C@@](N)(C(=O)O)[C@@H]21 [BCI-838] | – | – | – | – | – | – | – | duration of inhibition of group II mGlu receptors by brain concentration of active metabolite BCI-632 (group II mGlu receptors; once-daily oral dosing): 22 h; Dutch APP transgene-associated learning and memory impairment (group II mGlu receptors; three months of treatment): reversed; anxiolytic effects (group II mGlu receptors; three months of treatment): anxiolytic effects; levels of monomeric and oAβ peptides in hippocampus and cortex (group II mGlu receptors; three months of treatment, two AD mouse models): decreased; hippocampal progenitor cell proliferation (group II mGlu receptors; wild-type and Alzheimer's diseased mice, 3 months): stimulated |
| N[C@](CC1c2ccccc2Oc2ccccc21)(C(=O)O)[C@H]1C[C@@H]1C(=O)O [LY341495] | achieved the same result | dose-dependently reduced | Antidepressant-like effects | Antidepressant-like effects | significantly reduce | active | – | antidepressant effect in helpless mice ([6]; acute administration): potent antidepressant effect |
| N[C@]1(C(=O)O)[C@H]2[C@@H](C[C@H]1OCc1ccc(Cl)c(Cl)c1)[C@]2(F)C(=O)O [MGS0039] | – | – | Antidepressant-like effects | Antidepressant-like effects | reduced | – | significantly decreased | number of escape failures [8]: significantly reduced; spontaneous locomotor activity [5]: no significant change; hyperactivity in the open field test [9]: attenuated; learning deficit in the passive avoidance test [9]: attenuated; increased immobility in FST [10]: reversed |
| Cc1cc(-c2cccc(C3=Nc4cc(C)c(C(F)(F)F)cc4NC(=O)C3)c2)cc(C)n1 [RO4491533] | reversed | dose-dependently reduced | – | – | – | active | – | – |
| CN1C(=O)CN=C(c2ccccc2)c2cc(Cl)ccc21 [diazepam] | – | – | – | – | – | – | significantly decreased | – |
| CNCCC(Oc1ccc(C(F)(F)F)cc1)c1ccccc1 (centres unmarked) [fluoxetine] | – | – | – | – | – | – | – | antidepressant effect in helpless mice ([6]; chronic (21 days) treatment): full antidepressant effect |
